Here are results for 2 molecules from patent US20210196779A1, “Compositions and Methods for Treating Steroid Hormone-Related Diseases or Disorders” (YALE UNIVERSITY, priority 2018, published 2021).

Test [1] relates to PSA mRNA. Description: qRT-PCR of PSA mRNA in 22RV1 cells. It is filed as cell-based, Human. Particulars: 22RV1 cells treated overnight, normalized to beta-actin. As for the experimental part: FIGS. 4C-4D are graphs showing the effect of Y1830, RG (or the fraction comprising RG) and RGA (or the fraction comprising RGA) on the mRNA of PSA (FIG. 4C) and KLK2 (FIG. 4D). 22RV1 cells were treated with Y1830, RGA or RG overnight and mRNA was extracted for qRT-PCR to determine the mRNA expression level of PSA and KLK2 as normalized to beta-actin.
RNA was extracted from herb treated cells using the Roche High Pure RNA isolation kit. cDNA was then generated from RNA samples using a Bio-rad iScript Advanced cDNA synthesis kit for RT-qPCR. qPCR was performed using human NRF2, H01, NQO1 and β-actin primers (Table 1) and iTaq™ Universal SYBR® Green Supermix in a CFX PCR machine (Bio-rad). Relative mRNA expression was calculated based on the change of the threshold cycle relative to the internal control, β-actin, using a standard curve generated by purified PCR products.
(Real-time PCR tracks product formation cycle by cycle.)

Test [2] concerns different prostate cell lines. Description: Growth of different prostate cell lines, all conditions. In kind it is cell-based. Particulars: under all conditions, up to 500 ng/ml. As for the experimental part: 20,000 cells in 1 ml of medium (phenol red free RPMI1640, 5% charcoal-dialysis FBS, 50 μg/ml Kanamyacin) were seeded per well of a 24-well plate and incubated in a 37° C. incubator with 5% CO2 overnight. […] For prostate cancer cells, DHT (25 nM) was used to stimulate androgen receptor activity. For glucocorticoid receptor overexpressed LNCaP cells, dexamethasone (50 nM) was used to stimulate glucocorticoid receptor activity. For all breast cancer cells, E2 (10 nM) was used to stimulate ER activity. Control medium without any steroid hormone was used as a control setting. After 4 days of incubation, cells were fixed and stained for 2 h with 0.5% methylene blue in 50% ethanol, followed by washing with tap water to remove unbound dye. Plates were air dried and then cells were dissolved in 1% sarkosyl (sodium lauroyl sarcosinate) by shaking at room temperature for 3 h. Cell growth was quantified based on the amount of methylene blue adsorbed by the cells as measured by a spectrophotometer (Molecular Devices) at 595 nm. All experiments were performed in triplicate wells and were repeated at least three times.

For test [3], the system named is H3K14 acetylation. Description: Western blot, MCF7 and 22RV1 cells, H3K14 acetylation. As to conditions: MCF7 and 22RV1 cells (FIGS. 11A-11B), 24 h. In kind it is cell-based. As for the experimental part: (§1) Western blot analysis was used to determine the protein expression using protein specific antibodies. β-actin or histone 3 was used to normalize protein loading.
(§2) Total cell lysis was conducted using 2×SDS sample buffer (62.5 mM Tris-HCl, 2% SDS, 10% glycerol, 50 mM DTT, and 0.05% bromophenol blue). The samples were sonicated for 10 s to shear DNA. Cell nuclei were isolated using Tris buffer saline with 0.4% NP40. Cell extracts were then electrophoresed through 10% SDS-polyacrylamide gels and transferred to 0.2 μm nitrocellulose membranes (Bio-Rad Laboratories, Hercules, Calif.) with a Miniprotein II transferring apparatus (Bio-Rad). The membranes were blocked and probed in TBS-T buffer (1×TBS buffer, 0.2% Tween 20) containing 5% non-fat milk. […] Enhanced chemiluminescence reagents (Perkin-Elmer Life Science Products, Boston, Mass.) were used to visualize the immunoreactive bands and the densities of protein bands were scanned analyzed using ImageJ software from the NIH.
A general note: A western blot detects proteins with antibodies after separation by electrophoresis.

The test system of test [4] is H3K27 acetylation. Description: Western blot, MCF7 and 22RV1 cells, H3K27 acetylation. As to conditions: 24 h. In kind it is cell-based. As for the experimental part:
as §1, §2

The subject of test [5] is tumor protein p53. Description: Western blot, MCF7 cells, p53. It is filed as cell-based. Particulars: wt MCF7 cells, 24 h. As for the experimental part: (§3) Western blot analysis was used to determine the protein expression using protein specific antibodies.
as §2, with “milk. Monoclonal rabbit anti-AR (1:5000), was used to detect androgen receptor (Abcam #133273), Glucocorticoid Receptor (D8H2) XP® Rabbit mAb #3660, ERa Antibody (F-10): sc-8002, BRD4 (E2A7X) Rabbit mAb #13440, Brd2 (D89B4) Rabbit mAb #5848, PARP (46D11) Rabbit mAb #9532, Acetyl-Histone H3 (Lys27) (D5E4) XP® Rabbit mAb #8173 and a monoclonal actin antibody diluted 1:2500 (Sigma, St. Louis, Mo.) was used to detect β-actin as the internal control to confirm equal protein loading.” for “milk.”

In test [6] the target is glucocorticoid receptor (GR) (Homo sapiens, UniProt P04150). Description: PSA-luciferase reporter assay, DEX induced, 22RV1 cells. Set-up: endogenous in cells. It is filed as cell-based. As to conditions: 22RV1 PSA-luciferase reporter cells. As for the experimental part: Reporter cells were treated with herbal extracts at 30, 100, 300, and 1000 μg/ml for 24 h in a 37° C.-CO2 incubator. DHT (25 nM) was used to stimulate androgen receptor activity. Dexamethasone (50 nM) was used to stimulate glucocorticoid receptor activity Cells were lysed using luciferase lysis buffer after which luciferase buffer with luciferin was added to generate luminescence. Luminescence was recorded using a luminescence microplate reader.

The target in test [7] is AR (stimulated with DHT) (Homo sapiens, UniProt P10275, T878A). Description: AR driven luciferase activity (DHT) in LNCaP / LNCaP-GR cells. As to conditions: LNCaP / LNCaP-GR luciferase reporter cells. On the technique in general: In a reporter assay the amount or activity of a reporter protein is the signal.
Procedure: Both LNCaP and GR overexpressing LNCaP cells were carrying luciferase reporters with AR response elements.
22RV1 or LNCaP prostate cancer cells were used in the screening study. 22RV1 or LNCaP cell lines were stably transfected with PSA promoter-PGL4.2 luciferase reporter.
Reporter cells were treated with herbal extracts at 30, 100, 300, and 1000 μg/ml for 24 h in a 37° C.-CO2 incubator. […] Dexamethasone (50 nM) was used to stimulate glucocorticoid receptor activity Cells were lysed using luciferase lysis buffer after which luciferase buffer with luciferin was added to generate luminescence. Luminescence was recorded using a luminescence microplate reader.
Test [8] has as its system Poly[ADP-ribose] polymerase-1 (PARP-1). Description: Western blot, MCF7 cells, PARP-1. In kind it is cell-based. As to conditions: 24 h. As for the experimental part:
as §3
as §2, with “milk. Monoclonal rabbit anti-AR (1:5000), was used to detect androgen receptor (Abcam #133273), Glucocorticoid Receptor (D8H2) XP® Rabbit mAb #3660, ERa Antibody (F-10): sc-8002, BRD4 (E2A7X) Rabbit mAb #13440, Brd2 (D89B4) Rabbit mAb #5848, PARP (46D11) Rabbit mAb #9532, Acetyl-Histone H3 (Lys27) (D5E4) XP® Rabbit mAb #8173 and a monoclonal actin antibody diluted 1:2500 (Sigma, St. Louis, Mo.) was used to detect β-actin as the internal control to confirm equal protein loading.” for “milk.”

Test [9] concerns Gata3. Description: Western blot, MCF7 cells, Gata3. As to conditions: 24 h. In kind it is cell-based. As for the experimental part:
as §3
as §2, with “milk. Monoclonal rabbit anti-AR (1:5000), was used to detect androgen receptor (Abcam #133273), Glucocorticoid Receptor (D8H2) XP® Rabbit mAb #3660, ERa Antibody (F-10): sc-8002, BRD4 (E2A7X) Rabbit mAb #13440, Brd2 (D89B4) Rabbit mAb #5848, PARP (46D11) Rabbit mAb #9532, Acetyl-Histone H3 (Lys27) (D5E4) XP® Rabbit mAb #8173 and a monoclonal actin antibody diluted 1:2500 (Sigma, St. Louis, Mo.) was used to detect β-actin as the internal control to confirm equal protein loading.” for “milk.”

Chain of glucocorticoid receptor (GR) (P04150 whole entry): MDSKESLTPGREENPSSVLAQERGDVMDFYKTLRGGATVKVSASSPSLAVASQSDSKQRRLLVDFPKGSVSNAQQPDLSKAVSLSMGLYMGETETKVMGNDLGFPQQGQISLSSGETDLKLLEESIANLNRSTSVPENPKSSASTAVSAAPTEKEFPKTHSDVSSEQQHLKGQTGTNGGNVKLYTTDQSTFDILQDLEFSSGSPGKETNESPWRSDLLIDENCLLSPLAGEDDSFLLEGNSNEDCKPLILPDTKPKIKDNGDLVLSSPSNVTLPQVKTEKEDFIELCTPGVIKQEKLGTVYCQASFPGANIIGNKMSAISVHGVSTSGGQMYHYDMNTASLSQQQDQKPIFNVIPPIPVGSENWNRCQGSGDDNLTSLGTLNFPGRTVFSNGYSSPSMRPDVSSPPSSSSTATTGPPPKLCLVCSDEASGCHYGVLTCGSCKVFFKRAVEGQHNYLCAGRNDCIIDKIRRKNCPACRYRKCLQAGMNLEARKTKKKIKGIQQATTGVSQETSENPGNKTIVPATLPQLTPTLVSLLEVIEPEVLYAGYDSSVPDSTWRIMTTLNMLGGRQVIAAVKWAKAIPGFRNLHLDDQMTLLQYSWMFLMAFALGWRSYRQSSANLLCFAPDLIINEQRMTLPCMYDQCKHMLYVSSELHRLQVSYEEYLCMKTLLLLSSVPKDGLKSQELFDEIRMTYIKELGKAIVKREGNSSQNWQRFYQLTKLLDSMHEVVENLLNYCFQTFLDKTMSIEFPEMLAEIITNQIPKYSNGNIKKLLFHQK
Chain of AR (stimulated with DHT) (P10275 whole entry T878A): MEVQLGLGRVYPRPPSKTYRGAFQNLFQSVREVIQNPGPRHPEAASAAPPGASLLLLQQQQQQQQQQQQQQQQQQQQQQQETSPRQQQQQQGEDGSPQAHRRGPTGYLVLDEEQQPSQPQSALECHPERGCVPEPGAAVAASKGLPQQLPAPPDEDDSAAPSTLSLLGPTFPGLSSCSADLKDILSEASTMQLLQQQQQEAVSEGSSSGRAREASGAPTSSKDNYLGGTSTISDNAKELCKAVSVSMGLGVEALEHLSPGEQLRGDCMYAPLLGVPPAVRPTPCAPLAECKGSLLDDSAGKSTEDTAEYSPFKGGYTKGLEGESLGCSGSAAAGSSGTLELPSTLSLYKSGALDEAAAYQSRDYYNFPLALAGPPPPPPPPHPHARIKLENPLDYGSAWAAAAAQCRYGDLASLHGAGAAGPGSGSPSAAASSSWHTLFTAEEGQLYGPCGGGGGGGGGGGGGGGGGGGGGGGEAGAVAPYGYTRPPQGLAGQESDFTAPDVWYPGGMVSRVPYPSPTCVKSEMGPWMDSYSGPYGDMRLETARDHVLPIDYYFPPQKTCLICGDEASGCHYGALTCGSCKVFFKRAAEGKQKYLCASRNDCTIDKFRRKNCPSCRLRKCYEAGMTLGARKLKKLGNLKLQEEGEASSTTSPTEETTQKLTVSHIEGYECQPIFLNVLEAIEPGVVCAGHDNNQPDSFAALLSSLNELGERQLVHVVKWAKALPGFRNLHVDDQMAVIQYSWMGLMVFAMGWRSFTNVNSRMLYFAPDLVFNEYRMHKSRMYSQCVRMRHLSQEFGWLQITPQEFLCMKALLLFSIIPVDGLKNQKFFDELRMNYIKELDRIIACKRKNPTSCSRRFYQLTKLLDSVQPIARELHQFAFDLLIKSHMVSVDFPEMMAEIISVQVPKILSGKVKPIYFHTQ

For the molecule `Cc1c(OC2OC(CO)C(O)C(O)C2OC2OC(C)C(O)C(O)C2O)cc2c(c1O)C(=O)c1ccc(O)cc1C2=O` [RG, 1,3,6-Trihydroxy-2-methyl-9,10-anthracenedione 3-O-[α-L-Rhamnopyranosyl-(1→2)-β-D-glucopyranoside]], in test [1], the “inhibition of mRNA expression of PSA” value was “did not demonstrate this level of activity”. In addition, the “inhibitory effect on cell growth (in words)” value in test [2] is “did not any show inhibitory effect”.

As for `CC(=O)OCC1OC(Oc2cc3c(c(O)c2C)C(=O)c2ccc(O)cc2C3=O)C(OC2OC(C)C(O)C(O)C2O)C(O)C1O` [RGA, 1,3,6-Trihydroxy-2-methyl-9,10-anthracenedione 3-O-[α-L-Rhamnopyranosyl-(1→2)-6-O-acetyl-β-D-glucopyranoside]], the H3K14 acetylation entry in test [3] was “did not have a large impact”. The H3K27 acetylation result in [4] is “selectively decreased”. For the same molecule, in test [5], the p53 protein expression result is “downregulated”. Besides, in test [6], the “inhibitory effect on DEX induced transcriptional response” value was “inhibitory effect”. Also, the “inhibition of DHT induced transcriptional response” value in [7] was “effectively inhibit”. In addition, the PARP-1 protein expression entry in [8] is on record as “downregulate”. The Gata3 protein expression result in test [9] is “downregulation”.
